Assay results: patent US6916843B1, “Anti-inflammatory actions of cytochrome P450 expoxygenase-derived eicosanoids” (The United States of America as represented by the …, priority 1999, dated 2005)

Experiments:
IκB-α = assay: Fate of IκB-α after TNF-α stimulation of human endothelial cells; format: cell-based; conditions: TNF-α 10 ng/ml, 15 min; EET 100 nM
Description: Co-treatment with [11,12]-EET prevented the nuclear accumulation of RelA. Since the nuclear translocation of RelA requires the degradation of its endogenous cytoplasmic inhibitor, inhibitor kappa B (IκB-α), we followed the fate of IκB-α after TNF-α stimulation in the presence or absence of [11,12]-EET. Stimulation of human endothelial cells with TNF-α caused a rapid and almost complete disappearance of IκB-α which was prevented by co-treatment with [11,12]-EET, but not [14,15]-EET.
(§1) A set of gel shift assays was performed. […] In some assays, [11,12]-EET (100 nM) was also added directly to the IKK assay (in vitro). As a control for nonspecific phosphorylation, the assay was performed without the addition of immunoprecipitated IKK (no enzyme) or in the presence of a IκB-α mutant (ΔSer 32, Ser 36→Thr) as substrate. The assay was performed three times with similar results.
(§2) Specificity of IKB was determined by the complete absence of phosphorylation when the mutated IκB-α substrate, GST-1κB-α (Δ32,36: S→T) which cannot be phosphorylated at serine residues 32 and 36, was substituted for wild-type GST-IκB-α.

E-selectin expression = assay: Cell-surface enzyme immunoassay of TNF-α-induced E-selectin expression in endothelial cells; format: cell-based, human; conditions: 100 nM, TNF-α 10 ng/ml
Description: (§3) FIG. 2 is a set of bar graphs of cell-surface enzyme immunoassays. […] The difference between treatment with TNF-α alone and in the presence of [11,12]-EET were statistically significant (*p<0.05, **p<0.01), OD, optical density. […] After stimulation with TNF-α (10 ng/ml) in the presence or absence of EET, promoter activity was determined relative to basal activity. *p<0.01 vs. TNF-α alone.
(§4) To determine the biological effects of EETs, we treated tumor necrosis factor alpha (TNF-α)-stimulated human endothelial cells with physiological relevant concentrations (1-100 nM) of [5,6]-EET, [8,9]-EET, [11,12]-EET, [14,15]-EET, [11,12]-DHET.

ICAM-1 expression = assay: Cell-surface enzyme immunoassay of TNF-α-induced ICAM-1 expression in endothelial cells; format: cell-based, human; conditions: 100 nM, TNF-α 10 ng/ml
Description: as §3, §4

IκB kinase (IKK) = assay: IKK activity assay with GST-IκB-α substrate, TNF-α-stimulated endothelial cells; format: biochemical, human; conditions: 100 nM, TNF-α 10 ng/ml, 15 min
Description: as §1, §2

CYP2J2 = biological target: T1, CYP2J2 (Homo sapiens, UniProt P51589); assay: Arachidonic acid epoxygenase metabolite formation in CYP2J2-transfected bovine aortic endothelial cells (HPLC)
T1 construct: The CYP2J2 cDNA (1.9 kb) or GFP cDNA (0.75 kb) were subcloned into the plasmid pcDNA3.1; expressed in transfected cells; host or cells: bovine aortic endothelial cells (BAECs), transient transfection with pcDNA3.1/CYP2J2
T1 sequence (P51589 1-502): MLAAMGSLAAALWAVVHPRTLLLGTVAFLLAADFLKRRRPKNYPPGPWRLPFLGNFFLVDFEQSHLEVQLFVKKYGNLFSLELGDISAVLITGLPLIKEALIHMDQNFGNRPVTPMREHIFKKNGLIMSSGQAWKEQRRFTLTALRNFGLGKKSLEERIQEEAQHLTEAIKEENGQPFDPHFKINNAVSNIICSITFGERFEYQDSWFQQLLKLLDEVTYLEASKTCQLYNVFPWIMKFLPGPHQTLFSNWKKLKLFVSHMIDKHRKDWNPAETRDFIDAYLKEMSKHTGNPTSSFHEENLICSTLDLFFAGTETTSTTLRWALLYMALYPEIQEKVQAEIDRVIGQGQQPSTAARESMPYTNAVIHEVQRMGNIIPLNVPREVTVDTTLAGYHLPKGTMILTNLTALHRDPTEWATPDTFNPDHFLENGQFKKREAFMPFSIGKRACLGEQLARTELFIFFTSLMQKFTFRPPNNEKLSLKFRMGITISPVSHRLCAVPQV
Description: To study the formation of EETs by CYP2J2 in endothelial cells, we measured EET synthesis from bovine endothelial cells transfected with CYP2J2 cDNA. Early passage bovine aortic endothelial cells were grown to 60-70% confluence and transfected with either pcDNA3.1 or pcDNA3.1/CYP2J2 using Fugene™ 6 reagent (Boehringer Mannheim Corp.) according to the manufacturer's instructions. Using this method, the transfection efficiency was 10-20%. Forty-eight hours post-transfection, cells were washed twice with phosphate-buffered saline and incubated with freshly purified [^3H]arachidonic acid (185 Ci/mmol, 4-5 μCi/175 mm^2 flask) and unlabeled arachidonic acid (10 μM) was added before addition of arachidonic acid. At various time points, the media and cells were removed and extracted with diethyl ether. The combined organic phases were dried under a nitrogen stream, resolved by reverse-phase high performance liquid chromatography (HPLC) and quantified by liquid scintillation as described by Wu et al., 271 J. Biol. Chem. 3460 (1996). […]
These control GFP-transfected cells metabolized radiolabeled arachidonic acid to epoxygenase metabolites (EETs and DHETs) at a rate of ˜8 pmol/min/10^7 cells (FIG. 6). Endothelial cell arachidonic acid metabolism was determined as follows: Forty-eight hours after transfection with either pcDNA3.1/GFP or pcDNA3.1/CYP2J2, BAECs were incubated with freshly purified [5, 6, 8, 9, 11, 12, 14, 15-^3H]arachidonic acid (185 Ci/mmol, 4-5 μCi/175-mm^2 flask) in serurm-free culture medium at 37° C. for 30-120 min. […] The BAECs and culture medium were then collected and the reaction products extracted into ethyl ether, dried under a nitrogen stream, analyzed by reverse-phase HPLC, and quantified by on-line liquid scintillation using a Radiomatic Flo-One β detector (Radiomatic Instruments, Tampa, Fla.) as described (Wu et al., 271 J. Biol. Chem. 12551 (1996), Node et al., 285 Science 1276-1279 (1999)). […]

Molecule	effect on TNF-α-induced disappearance/degradation of IκB-α (IκB-α)	inhibition of E-selectin expression (E-selectin expression)	inhibition of ICAM-1 expression (ICAM-1 expression)	inhibition of TNF-α-induced IKK activity (IκB kinase (IKK))	rate of formation of epoxygenase metabolites (EETs and DHETs) (CYP2J2)
CCCCC/C=C\C[C@H]1O[C@H]1C/C=C\C/C=C\CCCC(=O)O [[11,12]-EET]	prevented	inhibited	inhibited	> 90%	
CYP2J2: CYP2J2 cDNA (1.9 kb) subcloned into plasmid pcDNA3.1, transfected into endothelial cells					17.8±2.3 pmol/minute/10^7 cells
